Converted amounts (≈) assume the structure as drawn. The source made the active and inactive calls. The rule behind the calls is not given here.
Legend:
Staphylococcus aureus [1] = assay: Antimicrobial activity against Staphylococcus aureus ATCC 29213 assessed as microbial growth inhibition at pH 5 to 6 by microdilution method; type: functional, organism-based
Staphylococcus aureus [2] = assay: Antimicrobial activity against Staphylococcus aureus ATCC 29213 assessed as microbial growth inhibition measured after 18 hrs by CLSI based broth microdilution method; type: functional
Staphylococcus aureus [3] = assay: Antimicrobial activity against Staphylococcus aureus ATCC 29213 assessed as microbial growth inhibition at pH 5 to 6 by susceptibility testing method; type: functional, organism-based

CCCCCCCCCC(=O)N[C@@H](Cc1c[nH]c2ccccc12)C(=O)N[C@H](CC(N)=O)C(=O)N[C@@H](CC(=O)O)C(=O)N[C@@H]1C(=O)NCC(=O)N[C@@H](CCCN)C(=O)N[C@@H](CC(=O)O)C(=O)N[C@H](C)C(=O)N[C@@H](CC(=O)O)C(=O)NCC(=O)N[C@H](CO)C(=O)N[C@@H]([C@H](C)CC(=O)O)C(=O)N[C@@H](CC(=O)c2ccccc2N)C(=O)O[C@@H]1C
growth inhibition (GI) (Staphylococcus aureus [1]): Active

CNCCC(=O)NCCC[C@H](NC(=O)CCNC(=O)/C=C\C=C\C(C)C)C(=O)NC(CC(O)c1ccccc1)C(=O)NC(C(=O)N[C@@H](Cc1ccc(O)cc1)C(=O)NC1C(=O)N[C@H](CC(C)C)C(=O)N[C@@H](CC(=O)O)C(=O)NCC(=O)N[C@@H](CO)C(=O)NCC(=O)N[C@@H](CC(=O)c2ccc(Cl)cc2N)C(=O)N[C@@H](C)C(=O)N2CCC[C@H]2C(=O)NC1C)C(O)CC(=O)O (stereo not given in full)
MIC (Staphylococcus aureus [2]): 16 µg/mL (≈ 8.89 µM)

NC[C@H]1O[C@H](O[C@H]2[C@H](O)[C@@H](O[C@H]3O[C@H](CO)[C@@H](O)[C@H](N)[C@H]3O)[C@H](N)C[C@@H]2N)[C@H](N)C[C@@H]1O
growth inhibition (GI) (Staphylococcus aureus [3]): Active

CC(C)/C=C/C=C\C(=O)NCCC(=O)N[C@@H](CCCN)C(=O)NC(CC(O)c1ccccc1)C(=O)NC(C(=O)N[C@@H](Cc1ccc(O)cc1)C(=O)NC1C(=O)N[C@H](CC(C)C)C(=O)N[C@@H](CC(=O)O)C(=O)NCC(=O)N[C@@H](CO)C(=O)NCC(=O)N[C@@H](CC(=O)c2ccc(Cl)cc2N)C(=O)N[C@@H](C)C(=O)N2CCC[C@H]2C(=O)NC1C)C(O)CC(=O)O (stereo not given in full)
MIC (Staphylococcus aureus [2]): 8 µg/mL (≈ 4.66 µM)

CN[C@H](CC(C)C)C(=O)N[C@H]1C(=O)N[C@@H](CC(N)=O)C(=O)N[C@H]2C(=O)N[C@H]3C(=O)N[C@H](C(=O)N[C@H](C(=O)O)c4cc(O)cc(O)c4-c4cc3ccc4O)[C@H](O)c3ccc(c(Cl)c3)Oc3cc2cc(c3O[C@@H]2O[C@H](CO)[C@@H](O)[C@H](O)[C@H]2O[C@H]2C[C@](C)(N)[C@H](O)[C@H](C)O2)Oc2ccc(cc2Cl)[C@H]1O
growth inhibition (GI) (Staphylococcus aureus [3]): Active

From ChEMBL document CHEMBL5335813, “Gausemycin Antibiotic Family Acts via Ca2+-Dependent Membrane Targeting” (2024)
